Test results taken from patent publication US12268672B2, “PPARδ activator” (JAPAN SCIENCE AND TECHNOLOGY AGENCY, priority 2018, dated 2025).
Structures can show the parent of a compound that is named as a salt.

How the values were obtained:
[1] = test system: angptl4, pdk4 and cpt1a genes; assay: Quantitative PCR of genes whose expression is induced by PPARδ in C2C12 cells; assay type: cell-based, mouse; settings: 10 μM compound (A-4), 16 hours, relative to Hprt, n=3
Protocol: The effect of compound (A-4) on the expression of the gene whose expression is induced by PPARδ was investigated. Specifically, compound (A-4) was added to mouse skeletal muscle-derived myoblast cell line C2C12 cells, and the expression levels of the angptl4, pdk4 and the cpt1a genes, whose expression is induced by PPARδ (NPL 12), were measured. In addition, the Hprt gene was used as an endogenous control, and GW0742 was used as a positive control for PPARδ activation.
First, C2C12 cells were seeded on a 24-well plate (1×10^5 cells/well) and cultured until 80-90% confluent. DMEM containing 10% bovine serum and 1% antibiotic was used as the culture medium. After culturing for 36 hours, when the target cell density was reached, the entire medium was replaced with a serum-free DMEM medium containing each concentration of compound (A-4), and the cells were cultured for 16 hours (n=3). After culturing, the medium was discarded, a trizol reagent (manufactured by Invitrogen) for RNA extraction was directly added to each well to lyse the cells, and then the total RNA was extracted by ethanol precipitation. Using the obtained total RNA as a template, cDNA was synthesized using the reverse transcriptase “Superscript” (manufactured by […]).
Quantitative PCR was performed using the obtained cDNA as a template. The cDNA of the template, the primer that amplifies each gene to be measured, and the polymerase mix “ssoFast EvaGreen Supermix” (manufactured by Biorad) for quantitative PCR were mixed. Analysis was performed using a real-time PCR detection system “CFX connect (registered trademark)” (manufactured by Biorad).
From the obtained gene expression data, the expression level of each gene was divided by the expression level of the endogenous control gene to calculate the relative expression level.

C2C12 cells = assay: Oxygen consumption rate (OCR) of C2C12 cells, extracellular flux analyzer; assay type: cell-based, mouse; settings: 100 μM metformin or 10 μM GW501516 for 24 hours; for OCR after FCCP addition: compared to DMSO-treated cells
Protocol: PPARδ is known to induce the expression of lipid metabolism-related genes and enhance β-oxidation of fatty acids, especially in skeletal muscle. The PPARδ agonist is expected to have an effect of increasing mitochondrial activity. […] Specifically, using C2C12 cells, the oxygen consumption rate (OCR: Oxygen Consumption Rate) of the cells was measured by a cell metabolism-measuring device (extracellular flux analyzer manufactured by Agilemt Technologies Inc.).
In this metabolic measurement, four inhibitors were used to force changes in intracellular metabolism (FIG. 14). First, oligomycin, which inhibits Complex V of the electron transport chain, was added. […] Next, the uncoupling agent FCCP (Carbonyl cyanide-p-trifluoromethoxyphenylhydrazone) was added. FCCP forcibly discharges hydrogen ions in the mitochondrial membrane to the outside of the membrane to eliminate the proton concentration gradient. Since a proton concentration gradient is required to produce ATP, the TCA cycle and electron transport chain are maximally activated when the gradient is forcibly eliminated by FCCP. This makes it possible to measure the maximum respiration rate of cells. It is known that OCR at this time is further increased in cells in which fatty acid oxidation is enhanced. Finally, rotenone and antimycin were added. Rotenone inhibits the electron transport chain complex I, and antimycin inhibits complex III.

endogenous PPARα = target: T1, endogenous PPARα (Homo sapiens, UniProt Q07869); assay: Affinity purification using Met-beads and HepG2 cell extract, binding to PPARα; settings: HepG2 cell extract
T1 construct: endogenous in cells; host or cells: HepG2
T1 sequence (Q07869 1-468): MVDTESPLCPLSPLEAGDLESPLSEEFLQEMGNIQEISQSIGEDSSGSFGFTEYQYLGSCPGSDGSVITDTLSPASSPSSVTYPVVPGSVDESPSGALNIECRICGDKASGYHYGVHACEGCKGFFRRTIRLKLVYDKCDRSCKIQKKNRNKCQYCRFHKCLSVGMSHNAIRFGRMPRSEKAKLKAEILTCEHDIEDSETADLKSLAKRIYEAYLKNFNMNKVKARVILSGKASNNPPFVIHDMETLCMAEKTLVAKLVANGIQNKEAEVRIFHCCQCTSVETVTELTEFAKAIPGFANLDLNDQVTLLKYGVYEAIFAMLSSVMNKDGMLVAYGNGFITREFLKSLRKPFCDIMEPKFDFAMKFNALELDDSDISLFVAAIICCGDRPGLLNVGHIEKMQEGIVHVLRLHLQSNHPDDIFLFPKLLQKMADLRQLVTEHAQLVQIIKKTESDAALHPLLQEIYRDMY
Protocol: […] is a member of the nuclear receptor superfamily, with PPARα and […] as the other two family members. Affinity purification was performed using the Met-beads and HepG2 cell extract to verify the binding to endogenous PPARα.

human PPARδ = human PPARδ (Homo sapiens, UniProt Q03181); settings: in the presence of PPARδ complex (hPPARδ, PGC1α, RXRα)
C57BL/6 mice = assay: Final exercise tolerance test on treadmill (NOS50); assay type: in vivo; settings: 25 mg/kg intraperitoneal
Protocol: For the metformin-non-administered group, an equal volume of PBS was intraperitoneally administered instead of the metformin/PBS solution.
The training for the final exercise tolerance test, in which the speed at start was 15 m/min and increased by 1 m/min every 10 minutes, and the running time after the speed reached 20 m/min was 10 minutes (1 hour in total), was performed 5 times a week for a total of 4 weeks using a treadmill device.
First, twenty 10-week-old male C57BL/6 mice were divided into 4 groups (5 mice per group). […] In addition, in order to average the motivation for exercise and exercise preference of individual mice in each group, the first exercise tolerance test was performed after training acclimatization to rank the mice, and the mice were divided into 4 groups so that the test results were even. Furthermore, in the test after the training period, the exercise tolerance was evaluated in such a manner that the running time was set as the time until the number of electrode contacts during the test reached 50 (number of shocks: NOS50), the speed at the start was set as 15 m/min and increased by 1 m/min every 10 minutes, and when the speed reached the maximum speed of 30 m/min, the running at the maximum speed was performed until NOS50 was reached.

endogenous AMPK = assay: Affinity purification using Met-beads and HepG2 cell extract, binding to AMPK; set-up: species or system human; settings: HepG2 cell extract
PPARδ = assay: Luciferase assay with GAL4-Ppard and MH2004 reporter in CV1 cells; assay type: cell-based; settings: for Light emission intensity (RLU) Average: 10 μM of each compound in DMSO, 12 hours; for Relative emission intensity Average: 10 μM of each compound, DMSO control defined as 1, n=3
Protocol: Among the compounds (1-1-4), the effects of compound (B-1), compound (B-2), and compound (B-3) on the transcriptional regulation of PPARδ were investigated. The effects on the transcriptional activity of PPARδ were measured by performing a luciferase assay on the cells treated with 10 μM of each compound dissolved in DMSO. Specifically, CV1 cells, which are cultured cells derived from African green monkey kidneys, were seeded on a 24-well plate (1×10^5 cells/well) and cultured until they became 70% confluent. DMEM containing 10% fetal bovine serum and 1% antibiotic was used as the culture medium. […] Then, the collected cells were lysed in a cell lysis buffer, suspended with a luminescent substrate (firefly luciferin), and the luminescence of the suspension was measured with a luminometer. In addition, the remaining suspension was mixed with Renilla luciferin and the amount of luminescence was measured with a luminometer. The result of the amount of light emitted by Renilla luciferin was used as the intrinsic control of gene transfer. Finally, the amount of luminescence of firefly luciferin was calculated as a light emission intensity (RLU) by dividing by the amount of luminescence of Renilla luciferin. The relative emission intensity of the reaction solution treated with each compound was determined as the transcriptional activation ability of PPARδ in each compound treatment, where the light emission intensity of the reaction solution to which an equal amount of DMSO was added (control) was defined as 1. The relative emission intensities were all 1.1 or more in the reaction solutions to which the compounds were added, and the transcriptional activity of PPARδ was increased. […] The effect of the obtained compound (A-4) on PPARδ activity was investigated. […] However, when the addition amount was 50 μM or more, the cells died and it was impossible to measure the transcription activity of PPARδ.

CV1 cells = assay: Cell death observed in the CV1 luciferase assay; assay type: cell-based; settings: transcription activity impossible to measure
Protocol: Specifically, CV1 cells, which are cultured cells derived from African green monkey kidneys, were seeded on a 24-well plate (1×10^5 cells/well) and cultured until they became 70% confluent. DMEM containing 10% fetal bovine serum and 1% antibiotic was used as the culture medium. After reaching the desired cell density, the entire medium was removed, and a mixture obtained by mixing 2 μL of MH2004 (plasmid encoding a firefly luciferase gene having a Gal4 activation sequence upstream: 100 ng/μL), 1 μL of pRL-CMV (plasmid encoding the Renilla reniformis luciferase gene directly under the CMV promoter: 100 ng/μL), 2 μL of GAL4-Ppard (plasmid encoding Gal4-DNA binding region fused with PPARδ gene: 100 ng/μL) and 1.5 μL of PEI (polyethylenimine: manufactured by Invitrogen) with 45 μL culture medium “Opti-MEM” (registered trademark) (manufactured by Thermo Fisher Scientific) was added to each well, and the cells were cultured for about 36 hours.
The effect of the obtained compound (A-4) on PPARδ activity was investigated. Specifically, a luciferase assay was carried out in the same manner as in Example 8 except that compound (A-4) dissolved in DMSO (0.1%) was added to the reaction system as a test substance (n=3). […] However, when the addition amount was 50 μM or more, the cells died and it was impossible to measure the transcription activity of PPARδ.

[2] = test system: recruitment of PPARδ to PPRE; assay: Chromatin immunoprecipitation of FLAG-PPARδ in differentiated C2C12-PPARδ cells; assay type: cell-based, mouse; settings: 100 μM metformin or 1 μM GW501516, day 6 of differentiation, IgG control set as 1
Protocol: First, C2C12-PPARδ cells, in which FLAG-tagged PPARδ (FLAG-PPARδ) was constitutively over-expressed in C2C12 cells were prepared. […] The treated cells were subjected to chromatin immunoprecipitation (Conventional ChIP) using an antibody that recognizes the FLAG tag.

Sequence of human PPARδ (Q03181 whole entry): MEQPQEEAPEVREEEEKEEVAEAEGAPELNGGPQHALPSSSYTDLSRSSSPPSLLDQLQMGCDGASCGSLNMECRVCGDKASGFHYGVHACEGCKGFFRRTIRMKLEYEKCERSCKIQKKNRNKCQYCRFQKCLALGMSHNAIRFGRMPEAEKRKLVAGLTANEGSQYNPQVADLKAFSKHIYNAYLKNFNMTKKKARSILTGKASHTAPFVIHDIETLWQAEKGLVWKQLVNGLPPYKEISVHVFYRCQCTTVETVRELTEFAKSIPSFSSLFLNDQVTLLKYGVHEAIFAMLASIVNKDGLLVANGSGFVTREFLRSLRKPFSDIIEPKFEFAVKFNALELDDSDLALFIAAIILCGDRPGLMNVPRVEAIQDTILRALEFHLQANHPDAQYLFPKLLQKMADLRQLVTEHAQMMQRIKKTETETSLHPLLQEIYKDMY
Sequence of human PPARδ (P19793 whole entry partner): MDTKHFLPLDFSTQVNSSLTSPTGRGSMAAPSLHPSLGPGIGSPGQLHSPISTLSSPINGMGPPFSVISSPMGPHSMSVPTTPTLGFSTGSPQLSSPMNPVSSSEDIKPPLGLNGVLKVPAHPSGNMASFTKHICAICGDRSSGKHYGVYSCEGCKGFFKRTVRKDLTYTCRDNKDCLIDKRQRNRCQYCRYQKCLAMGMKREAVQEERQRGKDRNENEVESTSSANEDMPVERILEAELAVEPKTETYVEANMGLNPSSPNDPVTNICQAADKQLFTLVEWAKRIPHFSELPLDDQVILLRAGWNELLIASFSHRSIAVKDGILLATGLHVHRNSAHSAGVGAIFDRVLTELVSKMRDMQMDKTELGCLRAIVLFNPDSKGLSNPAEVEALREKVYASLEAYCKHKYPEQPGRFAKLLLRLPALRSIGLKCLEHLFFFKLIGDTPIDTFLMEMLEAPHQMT
Sequence of human PPARδ (Q9UBK2 whole entry partner): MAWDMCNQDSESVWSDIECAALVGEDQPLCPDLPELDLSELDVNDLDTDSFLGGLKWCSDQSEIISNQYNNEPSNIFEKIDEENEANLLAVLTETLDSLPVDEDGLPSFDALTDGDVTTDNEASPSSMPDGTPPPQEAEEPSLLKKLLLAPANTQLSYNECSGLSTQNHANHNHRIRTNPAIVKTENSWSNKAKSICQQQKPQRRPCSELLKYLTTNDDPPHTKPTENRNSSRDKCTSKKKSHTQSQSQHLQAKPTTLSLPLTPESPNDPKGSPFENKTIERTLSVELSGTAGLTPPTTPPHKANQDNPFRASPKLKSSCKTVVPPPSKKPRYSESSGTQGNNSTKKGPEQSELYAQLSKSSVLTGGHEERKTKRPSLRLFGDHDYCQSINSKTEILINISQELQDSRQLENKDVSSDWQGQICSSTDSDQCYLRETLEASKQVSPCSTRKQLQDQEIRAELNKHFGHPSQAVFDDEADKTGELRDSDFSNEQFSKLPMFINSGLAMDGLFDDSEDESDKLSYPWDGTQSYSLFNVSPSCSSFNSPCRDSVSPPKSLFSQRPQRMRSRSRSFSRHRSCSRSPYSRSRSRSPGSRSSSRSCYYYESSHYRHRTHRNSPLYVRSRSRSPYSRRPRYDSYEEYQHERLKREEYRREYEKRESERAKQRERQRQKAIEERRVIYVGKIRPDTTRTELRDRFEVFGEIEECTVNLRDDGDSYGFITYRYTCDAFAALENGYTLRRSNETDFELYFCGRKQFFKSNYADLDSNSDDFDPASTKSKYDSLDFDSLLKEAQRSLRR

Cc1cc(SCc2sc(-c3ccc(C(F)(F)F)c(F)c3)nc2C)ccc1OCC(=O)O [GW0742]
expression level of the angptl4 gene [1]: increased | expression level of the cpt1a gene [1]: increased | expression level of the pdk4 gene [1]: increased

CN(C)C(=N)N=C(N)N [metformin]
base OCR before the inhibitor treatment (C2C12 cells): did not change | OCR after FCCP addition (C2C12 cells): increase in OCR | binding between metformin and PPARα (endogenous PPARα): not detected | activation ability compared with GW501516 (human PPARδ): about the same as that of GW501516 | exercise tolerance, metformin administration without training (C57BL/6 mice; 4 weeks, compared with control group): did not show an improvement in exercise tolerance | exercise tolerance, training + metformin administration (C57BL/6 mice; training 5 times a week for 4 weeks, compared with training group): higher exercise tolerance than the training group | binding between metformin and AMPK (endogenous AMPK): not detected

COc1cc(CNC(=N)N)ccc1OCc1ccccc1 [compound (B-3)]
Light emission intensity (RLU) Average (PPARδ; n=3): 457033 | Relative emission intensity Average (PPARδ): 2.04

Cc1cc(SCc2sc(-c3ccc(C(F)(F)F)c(F)c3)nc2C)ccc1CNC(=N)N [compound (A-4), 1-{4-[({2-[3-fluoro-4-(trifluoromethyl)phenyl]4-methylthiazole-5-yl}methyl)thio]-2-methylbenzyl}guanidine]
transcriptional activity of PPARδ (relative transcriptional activation ability) (PPARδ; depending on the amount added, DMSO (0.1%), n=3): tended to increase | addition amount at which the cells died (CV1 cells): ≥ 50 µM | expression level of the angptl4 gene [1]: increased | expression level of the cpt1a gene [1]: increased | expression level of the pdk4 gene [1]: increased

Cc1cc(SCc2sc(-c3ccc(C(F)(F)F)cc3)nc2C)ccc1OCC(=O)O [GW501516]
base OCR before the inhibitor treatment (C2C12 cells): did not change | OCR after FCCP addition (C2C12 cells): increase in OCR | recruitment of PPARδ in the vicinity of PPRE on promoters of Angptl4, Pdk4, Plin2 and Ucp3 genes [2]: recruited

N=C(N)NCc1ccc(COCc2ccccc2)cc1 [compound (B-1), N-({4-[(benzyloxy)methyl]phenyl}methyl) guanidine hydrobromide]
Light emission intensity (RLU) Average (PPARδ; n=3): 250467 | Relative emission intensity Average (PPARδ): 1.12
